In the NIST ThermoML archive (doi:10.1016/j.jct.2009.07.020):
± gives the expanded uncertainty stated by the source.

Columns and labels:
[1] = 293.15 K, 101.33 kPa, Liquid; for speed of sound: Sing-around technique in a fixed-path interferometer; for mass density: Vibrating tube method
[2] = xn = mol fraction of the nth substance listed; settings: 101 kPa, Liquid; for speed of sound: Sing-around technique in a fixed-path interferometer; for mass density: Vibrating tube method

CCCCCCCCCCO [decan-1-ol]
[1]
Settings | mass density [kg/m3] | speed of sound [m/s]
– | 829.991 ± 0.14 | 1396.4 ± 0.99

CCCCCCCCCCO [decan-1-ol] + BrCCBr
[2], x2 = 0
Settings | mass density [kg/m3] | speed of sound [m/s]
293.15 K | 829.991 ± 0.14 | 1396.4 ± 0.92
313.15 K | 816.264 ± 0.14 | 1328.7 ± 0.9

CCCCCCCCCCO [decan-1-ol] + ClC(Cl)=C(Cl)Cl
[2], x2 = 0
Settings | mass density [kg/m3] | speed of sound [m/s]
293.15 K | 829.991 ± 0.14 | 1396.4 ± 0.92
313.15 K | 816.264 ± 0.14 | 1328.7 ± 0.9

CCCCCCCCCCO [decan-1-ol] + ClCCCl
[2], x2 = 0
Settings | mass density [kg/m3] | speed of sound [m/s]
293.15 K | 829.991 ± 0.14 | 1396.4 ± 0.92
313.15 K | 816.264 ± 0.14 | 1328.7 ± 0.9

ClC(Cl)=C(Cl)Cl [tetrachloroethene]
[1]
Settings | mass density [kg/m3] | speed of sound [m/s]
– | 1622.39 ± 0.42 | 1053.8 ± 0.9

ClC(Cl)=C(Cl)Cl [tetrachloroethene] + CCCCCCCCCCO
[2]
Settings | mass density, 293.15 K [kg/m3] | mass density, 313.15 K [kg/m3] | speed of sound, 293.15 K [m/s] | speed of sound, 313.15 K [m/s]
x1 = 0.057 | 854.607 ± 0.16 | 840.425 ± 0.16 | 1378.1 ± 0.92 | 1310.7 ± 0.9
x1 = 0.1355 | 890.745 ± 0.15 | 875.885 ± 0.15 | 1350.2 ± 0.91 | 1283.1 ± 0.89
x1 = 0.2186 | 932.241 ± 0.15 | 916.585 ± 0.15 | 1319.8 ± 0.9 | 1252.8 ± 0.88
x1 = 0.2882 | 969.944 ± 0.15 | 953.338 ± 0.15 | 1294.8 ± 0.89 | 1228.4 ± 0.87
x1 = 0.3824 | 1025.8 ± 0.16 | 1007.72 ± 0.15 | 1260.6 ± 0.88 | 1195 ± 0.86
x1 = 0.4464 | 1067.31 ± 0.18 | 1048.17 ± 0.17 | 1237.2 ± 0.87 | 1172 ± 0.86
x1 = 0.499 | 1103.86 ± 0.2 | 1083.69 ± 0.19 | 1218.5 ± 0.87 | 1153.5 ± 0.85
x1 = 0.5849 | 1168.91 ± 0.23 | 1146.94 ± 0.22 | 1187.2 ± 0.86 | 1122.7 ± 0.84
x1 = 0.6417 | 1216.01 ± 0.26 | 1192.81 ± 0.25 | 1166.5 ± 0.85 | 1102.9 ± 0.83
x1 = 0.7175 | 1284.75 ± 0.3 | 1259.72 ± 0.28 | 1139.4 ± 0.84 | 1076 ± 0.83
x1 = 0.7786 | 1345.73 ± 0.34 | 1319.21 ± 0.32 | 1117.7 ± 0.84 | 1054.1 ± 0.82
x1 = 0.8527 | 1427.55 ± 0.38 | 1398.72 ± 0.36 | 1092.4 ± 0.83 | 1029.3 ± 0.81
x1 = 0.9003 | 1485.31 ± 0.42 | 1455.08 ± 0.4 | 1077.6 ± 0.82 | 1015 ± 0.81
x1 = 0.941 | 1538.45 ± 0.46 | 1507.24 ± 0.44 | 1065.9 ± 0.82 | 1005 ± 0.8
x1 = 1 | 1622.39 ± 0.41 | 1588.98 ± 0.39 | 1053.8 ± 0.81 | 993.96 ± 0.79
